Source: the supplement of paper PMC10307832

Assays:
Assay in all cases: relative viability (nuclei count vs DMSO), 5 days (fraction); higher = more cells survive
[1] = compound: C1=CC2=C(C=CC(=C2)C=C3C(=O)NC(=NCC4=CC=CS4)S3)N=C1 [RO-3306] + CS(=O)(=O)N1CCN(Cc2cc3nc(-c4cccc5[nH]ncc45)nc(N4CCOCC4)c3s2)CC1 [Pictilisib] (partner 1 µM)
Method in brief: (§1)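 One day after seeding in 1536-well plates, lung cancer cell lines were dosed by pin tool. Dosing was either single-drug or a fixed anchor-drug dose plus five library-drug doses (not always all listed) in √10 steps. After 5 days, nuclei were stained in one fix-and-stain step and counted on 4× images, and relative viability is the nuclei count of treated wells over that of vehicle wells, given as the median of duplicate plates.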

[2] = compound: O=S(=O)(c1ccccc1)N(CC(F)(F)F)c1ccc(C(O)(C(F)(F)F)C(F)(F)F)cc1 + CCNC(=O)c1noc(-c2cc(C(C)C)c(O)cc2O)c1-c1ccc(CN2CCOCC2)cc1 [Luminespib] (partner 0.01 µM)
Method in brief: as §1

[3] = compound: O=S(=O)(c1ccccc1)N(CC(F)(F)F)c1ccc(C(O)(C(F)(F)F)C(F)(F)F)cc1 + CS(=O)(=O)CCNCc1ccc(-c2ccc3ncnc(Nc4ccc(OCc5cccc(F)c5)c(Cl)c4)c3c2)o1 [Lapatinib] (partner 2 µM)
Method in brief: as §1

[4] = compound: O=S(=O)(c1ccccc1)N(CC(F)(F)F)c1ccc(C(O)(C(F)(F)F)C(F)(F)F)cc1 + N=C(N)NC(=N)NCCc1ccccc1 [Phenformin] (partner 250 µM)
Method in brief: as §1

[5] = compound: O=S(=O)(c1ccccc1)N(CC(F)(F)F)c1ccc(C(O)(C(F)(F)F)C(F)(F)F)cc1 + Nc1ncn([C@H]2C[C@H](O)[C@@H](CO)O2)c(=O)n1 [Decitabine] (partner 2 µM)
Method in brief: as §1

Row | Cell Line | relative viability ([1]; first compound 0.01 µM) | relative viability ([1]; first compound 0.03162 µM) | relative viability ([1]; first compound 0.1 µM) | relative viability ([1]; first compound 0.3162 µM) | relative viability ([1]; first compound 1 µM) | relative viability ([2]; first compound 0.8 µM) | relative viability ([2]; first compound 2.53 µM) | relative viability ([2]; first compound 8 µM) | relative viability ([3]; first compound 0.8 µM) | relative viability ([3]; first compound 2.53 µM) | relative viability ([3]; first compound 8 µM) | relative viability ([4]; first compound 0.8 µM) | relative viability ([4]; first compound 2.53 µM) | relative viability ([4]; first compound 8 µM) | relative viability ([5]; first compound 0.8 µM) | relative viability ([5]; first compound 2.53 µM) | relative viability ([5]; first compound 8 µM)
1 | NCI-H1915 | 0.919 | 0.827 | 0.878 | 0.917 | 0.615 | 0.813 | 0.776 | 0.786 | 1.05 | 0.995 | 1.02 | 0.373 | 0.309 | 0.408 | 0.287 | 0.281 | 0.29
2 | NCI-H1944 | 0.283 | 0.299 | 0.313 | 0.368 | 0.325 | 0.946 | 0.786 | 0.68 | 0.897 | 0.856 | 0.951 | 0.209 | 0.19 | 0.197 | 0.461 | 0.456 | 0.483
3 | NCI-H1975 | 0.321 | 0.259 | 0.261 | 0.324 | 0.211 | 0.205 | 0.201 | 0.311 | 1.32 | 0.99 | 1.01 | 0.452 | 0.439 | 0.414 | 0.453 | 0.545 | 0.472
4 | NCI-H1993 |  | 0.956 | 0.686 | 0.743 | 0.897 | 0.874 | 0.577 | 0.721 | 0.813 | 0.613 | 0.849 | 0.522 | 0.529 | 0.469 | 0.515 | 0.563 | 0.579
5 | NCI-H2009 | 0.96 | 0.712 | 0.806 | 0.753 | 0.636 | 1 | 0.878 | 0.787 | 0.922 | 0.804 | 0.844 | 0.47 | 0.439 | 0.419 | 0.366 | 0.372 | 0.369
6 | NCI-H2023 | 0.168 | 0.241 | 0.225 | 0.219 | 0.167 | 0.921 | 0.638 | 0.535 | 0.742 | 0.743 | 0.55 | 0.472 | 0.369 | 0.311 | 0.221 | 0.233 | 0.221
7 | NCI-H2085 | 0.388 | 0.467 | 0.467 | 0.492 | 0.479 | 0.46 | 0.371 | 0.428 | 0.759 | 0.677 | 0.65 | 0.805 | 0.695 | 0.741 | 0.508 | 0.539 | 0.501
8 | NCI-H2087 | 0.988 | 0.698 | 1.01 | 0.974 | 0.836 | 0.17 | 0.146 | 0.205 | 0.922 | 0.988 | 0.994 | 0.512 | 0.456 | 0.341 | 0.305 | 0.327 | 0.301
9 | NCI-H2126 | 0.413 | 0.426 | 0.506 | 0.425 | 0.477 | 0.994 | 0.83 | 0.831 | 0.868 | 0.791 | 0.905 | 0.578 | 0.533 | 0.518 | 0.655 | 0.573 | 0.533
10 | NCI-H2170 | 0.292 | 0.303 | 0.305 | 0.312 | 0.334 | 0.855 | 0.474 | 0.489 | 0.276 | 0.299 | 0.288 | 0.379 | 0.348 | 0.344 | 0.496 | 0.439 | 0.475
11 | NCI-H2347 | 0.715 | 0.477 | 0.642 | 0.881 | 0.668 | 0.512 | 0.41 | 0.286 | 1.02 | 1.03 | 0.963 | 0.462 | 0.38 | 0.342 | 0.657 | 0.614 | 0.66
12 | NCI-H2405 | 0.369 | 0.433 | 0.496 | 0.534 | 0.427 | 0.718 | 0.616 | 0.646 | 1.01 | 0.962 | 1.15 | 0.386 | 0.402 | 0.396 | 0.841 | 0.701 | 0.797
13 | NCI-H3122 | 0.602 | 0.56 | 0.624 | 0.611 | 0.525 | 0.0579 | 0.0537 | 0.115 | 0.975 | 0.897 | 1.03 | 0.345 | 0.334 | 0.338 | 0.301 | 0.385 | 0.421
14 | PC-3 [JPC-3] | 0.725 | 0.717 | 0.672 | 0.769 | 0.882 | 0.654 | 0.717 | 0.679 | 0.482 | 0.421 | 0.452 | 0.441 | 0.551 | 0.501 |  | 0.817 | 0.826
15 | PC-14 | 0.892 | 0.539 | 0.648 | 0.592 | 0.511 | 0.153 | 0.132 | 0.19 | 0.26 | 0.191 | 0.223 | 0.309 | 0.357 | 0.447 | 0.197 | 0.19 | 0.209
16 | RERF-LC-KJ | 0.563 | 0.487 | 0.591 | 0.552 | 0.435 | 1.29 | 1.17 | 1.17 | 0.828 | 0.715 | 0.693 | 0.449 | 0.364 | 0.408 | 0.752 | 0.701 | 0.687
17 | SK-LU-1 | 0.539 | 0.603 | 0.651 | 0.671 | 0.521 | 0.169 | 0.165 | 0.196 | 0.903 | 1.02 | 0.753 | 0.546 | 0.489 | 0.526 | 0.669 | 0.63 | 0.703
18 | SK-MES-1 | 0.324 | 0.334 | 0.353 | 0.413 | 0.355 | 0.677 | 0.744 | 0.533 | 0.442 | 0.424 | 0.514 | 0.779 | 0.745 | 0.65 | 0.375 | 0.337 | 0.366
19 | SW 1573 | 0.536 | 0.406 | 0.534 | 0.534 | 0.39 | 0.266 | 0.218 | 0.207 | 1.18 | 1.2 | 1.06 | 0.47 | 0.37 | 0.401 | 0.542 | 0.543 | 0.541
